According to patent publication US20240150339A1, “Compounds and Their Use as PDE4 Activators” (Mironid Limited, priority 2021, published 2024):

Test system: m-IMCD3 cells
Assay: Inhibition of PGE2-stimulated in vitro cyst formation in 3D culture of m-IMCD3 cells
Format: cell-based, mouse
Conditions: Mus musculus, mIMCD3, 144 h; 10 μM test compound; mean cyst area (%) compared to 100% for (DMSO + PGE2) and 0% for DMSO control; 100 nM PGE2; 6 days; read-out: % Cyst area after incubation with 10 μM test compound
Summary of the method: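 Mouse m-IMCD3 cells grown in 3D collagen I/Matrigel gels. From 18-24 h after plating, compound (0.1% DMSO) plus 100 nM PGE2 were added and replenished at 2-3 days. After 6 days, imaging gave mean cyst area, scaled to 100% for DMSO+PGE2 and 0% for DMSO alone.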

Cc1ncccc1-c1nc2ccc(C(=O)N[C@H]3CCOc4ccccc43)cc2s1 [Example 7, (S)-N-(chroman-4-yl)-2-(2-methylpyridin-3-yl)benzo[d]thiazole-6-carboxamide]
activity at 10 µM: -7%
